# Assay results taken from patent US20250034510A1, “SYSTEMS, DEVICES, AND METHODS FOR BIOLOGICAL MATERIAL RESTORATION AND/OR CRYOPRESERVATION” (Oregon State University, priority 2023, published 2025).
# “And” between values parts separate entries of the source, which are not always exact repeats. Equal entries are not always repeated.
# Legend:
# [1] = test system: nucleus pulposus (NP) cells; assay: Cytotoxicity of CPA 1 on NP cells in monolayer culture (LIVE/DEAD assay); type: cell-based, bovine; conditions: PG as part of CPA 1 (FIG. 13)
# Source text: In this example, NP cells were isolated following a protocol adapted and modified from Wiseman et al. (Wiseman, M. A., H. L. Birch, M. Akmal, and A. E. Goodship, Spine, 2005, 30:505-11). Two freshly skinned skeletally mature bovine tails were obtained from a local abattoir, disinfected for five minutes in a 1% Betadine solution (RC3955, VWR International, PA), and allowed to dry in a sterile environment for ten minutes. Muscle and fat tissue were removed from each tail, exposing the IVDs. The isolated IVDs were wrapped with a sterile gauze soaked in 0.9% sodium chloride (IC102892.5, VWR International, PA) and 55 mM sodium citrate (BDH9288, VWR International, PA) while awaiting dissection.
# NP tissue was removed with a scalpel, cut into 4 mm^2 pieces, and digested in a humidified cell incubator at 37° C. and 5% CO2. […]
# In this example, NP cells were cultured in 6 well-plates to elucidate the cytotoxicity of CPA 1 composed of 80% DMEM (D6046, Sigma), 10% DMSO (IC0219605590, VWR International, PA), and % 10 propylene glycol (PG) (P4347, Sigma, MO). […] Cells were stained with a fluorescent LIVE/DEAD™ assay (L3224, ThermoFisher, MA) and scanned using Keyence BZ-X700 fluorescence microscope (Oregon State University, OR). […]
# [2] = DMSO penetration in IVDs tracked by CT; type: in vitro ADME, bovine; conditions: for DMSO saturation level: free swelling IVD without compression, 10% DMSO
# Description: In this example, the transport of DMSO in free-swelling IVDs was assessed. Three skeletally mature Black Angus bovine IVDs were incubated in 10% DMSO for three days and CT-scanned at 0, 24, 56, and 72 hours. DMSO penetration was tracked using a Toshiba Aquilion 64-slice Computed Tomography (CT) unit provided by the Carlson College of Veterinary Medicine at Oregon State University. Acquisition parameters were set to 120 kVp, 240 FoV, 0.6 pitch, and 250 mA.
# Materialize Mimics® 21.0 was used to segment the IVD's soft tissue (AF and NP). A code was developed in MATLAB® 9.9 to perform a Gaussian curve-fitting analysis of the segmented scans, estimating the mean signal intensity (FIG. 12).
# The correlation in equation 1 was developed To relate mean signal intensity to penetration %, the mean signal intensity was normalized for the sample of interest (IVDn) to the intensities of both a fresh IVD (IVD0) and a fully-saturated IVD (IVDF*).
# The effectiveness of PrimeGrowth™ (n=3) and compression (n=3) in improving the transport of DMSO and decreasing cell CPA exposure time were also assessed. PrimeGrowth™ is designed to clear blood clots in the CEP, improving transport through its pores and channels. Axial compression could enhance the convection transport of fluids in the IVD. IVDs treated with PrimeGrowth™ were incubated in a 30 mL Isolation Medium for one hour and rinsed in an equal volume of Neutralization Medium for two minutes. In a separate protocol, bovine IVDs were compressed in a custom-built bioreactor for four hours under a sine-wave load (0 MPa to 2.5 MPa at 0.1 Hz) and soaked in 10% DMSO. DMSO penetration in IVDs was tracked via CT scans compared to a control group (n=3) soaking in 10% DMSO. CT scans were acquired at 0, 5, 8, 24, and 36 hours.
SMILES,effect on cell viability in a monolayer cell culture [1],time required for DMSO to fully saturate the disc ([2]; IVD compressed before soaking in 10% DMSO) [h],time required to reach a 75% level of penetration ([2]; IVD without compression) [h],time to reach equilibrium with the surrounding solution ([2]; IVD without compression (FIG. 14)) [h],"DMSO penetration ([2]; compression then free swelling, in 3 to 4 hours)",decrease of the time required for full penetration by compression (improvement) ([2]; compression vs no compression),"DMSO penetration ([2]; compression, at 3 hours) [%]",DMSO saturation level ([2]; after 24 hours) [%],DMSO saturation level ([2]; by 72 hours of incubation) [%],"mean DMSO penetration % compared to time 0 (one-way ANOVA, p<0.05) ([2]; free-swelling IVDs, after 24 hours of incubation)"
"CC(O)CO (stereo not shown) [PG, propylene glycol]",devastating for cell viability,–,–,–,–,–,–,–,–,–
"C[S+](C)[O-] [DMSO, dimethylsulfoxide]",–,3,72,72,about 90%,96% and 95%,97,50,75,significantly different
